In PubChem BioAssay AID330 (DTP/NCI, 2004):
Where “and” joins values, the source holds several entries; their conditions need not be identical. Equal values may be shown once. Inconclusive results and toxic doses are left out. How the source made its calls: active means survival T/C of 150% or more; inactive means T/C below 125% in these data. Square brackets hold non-standard residues; d marks the D form. Peptide text beside a SMILES is read from it. * marks the point of attachment. ξ: configuration not given here. Nphe = O=C(O)CNCc1ccccc1; ξL = CC(C)CC(N)C(=O)O; Ms = CS(=O)(=O)*

Test system: P388 leukemia ip, CD2F1 mice, survival T/C
Assay: NCI In Vivo Anticancer Drug Screen. Data for tumor model P388 Leukemia (intraperitoneal) in CD2F1 (CDF1) mice
Details: endpoint: median survival time, higher = longer survival
Outline: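 Mice carrying the transplanted tumor received test compound or vehicle. Survival was recorded in each group, and the value is the treated-group measurement divided by that of the vehicle-treated control group.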

[1] = dose: 50.0 mg/kg/injection, schedule: Q01DX009 (ip), vehicle: Klucel (hydroxypropylcellulose) (HPC)
[2] = dose: 100.0 mg/kg/injection, schedule: Q01DX009 (ip), vehicle: Klucel (hydroxypropylcellulose) (HPC)
[3] = dose: 200.0 mg/kg/injection, schedule: Q01DX009 (ip), vehicle: Klucel (hydroxypropylcellulose) (HPC)
[4] = dose: 15.0 mg/kg/injection, schedule: Q01DX005 (ip), vehicle: saline with Tween-80
[5] = dose: 60.0 mg/kg/injection, schedule: Q01DX005 (ip), vehicle: saline with Tween-80
[6] = dose: 100.0 mg/kg/injection, schedule: Q01DX001 (ip), vehicle: saline
[7] = dose: 400.0 mg/kg/injection, schedule: Q01DX001 (ip), vehicle: saline
[8] = dose: 120.0 mg/kg/injection, schedule: Q01DX005 (ip), vehicle: saline with Tween-80
[9] = dose: 240.0 mg/kg/injection, schedule: Q01DX005 (ip), vehicle: saline with Tween-80
[10] = dose: 50.0 mg/kg/injection, schedule: Q01DX001 (ip), vehicle: saline with Tween-80
[11] = dose: 100.0 mg/kg/injection, schedule: Q01DX001 (ip), vehicle: saline with Tween-80
[12] = dose: 12.5 mg/kg/injection, schedule: Q04DX002 (ip), vehicle: saline with Tween-80
[13] = dose: 25.0 mg/kg/injection, schedule: Q04DX002 (ip), vehicle: saline with Tween-80
[14] = dose: 12.5 mg/kg/injection, schedule: Q01DX009 (ip), vehicle: other
[15] = dose: 25.0 mg/kg/injection, schedule: Q01DX009 (ip), vehicle: other
[16] = dose: 50.0 mg/kg/injection, schedule: Q01DX009 (ip), vehicle: other
[17] = dose: 100.0 mg/kg/injection, schedule: Q01DX009 (ip), vehicle: other
[18] = dose: 200.0 mg/kg/injection, schedule: Q01DX001 (ip), vehicle: saline with Tween-80
[19] = dose: 200.0 mg/kg/injection, schedule: Q01DX009 (ip), vehicle: other
[20] = dose: 100.0 mg/kg/injection, schedule: Q01DX001 (ip), vehicle: Klucel (hydroxypropylcellulose) (HPC)
[21] = dose: 200.0 mg/kg/injection, schedule: Q01DX001 (ip), vehicle: Klucel (hydroxypropylcellulose) (HPC)
[22] = dose: 50.0 mg/kg/injection, schedule: Q01DX005 (ip), vehicle: saline with Tween-80
[23] = dose: 100.0 mg/kg/injection, schedule: Q01DX005 (ip), vehicle: saline with Tween-80
[24] = dose: 200.0 mg/kg/injection, schedule: Q01DX005 (ip), vehicle: saline with Tween-80

Measured: T/C

Nc1ncncc1-c1ccc2ccccc2c1
inactive: [1] 95 % of control | [2] 92 % of control | [3] 96 % of control

O=c1cccc[nH]1
inactive: dose: 50.0 mg/kg/injection, schedule: Q01DX009 (ip), vehicle: saline 104 % of control and 112 % of control and 121 % of control | dose: 100.0 mg/kg/injection, schedule: Q01DX009 (ip), vehicle: saline 107 % of control and 109 % of control and 110 % of control | dose: 200.0 mg/kg/injection, schedule: Q01DX009 (ip), vehicle: saline 104 % of control and 105 % of control and 118 % of control | dose: 400.0 mg/kg/injection, schedule: Q01DX009 (ip), vehicle: saline 108 % of control and 96 % of control | dose: 600.0 mg/kg/injection, schedule: Q01DX009 (ip), vehicle: saline 121 % of control

O=c1oc2ccccc2c(O)c1C(c1ccc2c(c1)OCO2)N1CCCC1 (stereo not drawn)
inactive: [4] 100 % of control | dose: 30.0 mg/kg/injection, schedule: Q01DX005 (ip), vehicle: saline with Tween-80 102 % of control | [5] 99 % of control and 103 % of control

O=C1c2ccccc2C(=O)N1C/C=C\c1ccccc1
inactive: [6] 102 % of control | dose: 200.0 mg/kg/injection, schedule: Q01DX001 (ip), vehicle: saline 102 % of control | [7] 107 % of control

N#CC(C(=O)C(N)=O)c1ccc(Cl)cc1Cl (stereo not drawn)
inactive: [5] 104 % of control | [8] 103 % of control | [9] 100 % of control

C[N+](C)(Cc1ccccc1)[N-]C(=N)c1ccccc1
inactive: dose: 12.5 mg/kg/injection, schedule: Q04DX003 (ip), vehicle: Klucel (hydroxypropylcellulose) (HPC) 105 % of control | dose: 25.0 mg/kg/injection, schedule: Q04DX003 (ip), vehicle: Klucel (hydroxypropylcellulose) (HPC) 101 % of control | dose: 50.0 mg/kg/injection, schedule: Q04DX003 (ip), vehicle: Klucel (hydroxypropylcellulose) (HPC) 100 % of control | dose: 100.0 mg/kg/injection, schedule: Q04DX003 (ip), vehicle: Klucel (hydroxypropylcellulose) (HPC) 103 % of control

C=C1C(=O)OC2C=CCCCC12 (stereo not drawn)
inactive: [10] 105 % of control | [11] 102 % of control

O=C(CCCc1ccc(N2C(=O)C=CC2=O)cc1)ON1C(=O)CCC1=O
inactive: [12] 105 % of control | [13] 104 % of control

COC(=O)C1CCC[P+]1(C)C (stereo not drawn)
inactive: [6] 106 % of control | [7] 101 % of control

O=C(NNS(=O)(=O)CCC(NC(=O)OCc1ccccc1)C(=O)OCc1ccccc1)OCc1ccccc1 (stereo not drawn)
inactive: [14] 110 % of control | [15] 102 % of control | [16] 96 % of control | [17] 96 % of control

O=NN(C(=O)NC1CC1)C1CC1
inactive: dose: 25.0 mg/kg/injection, schedule: Q01DX001 (ip), vehicle: water 111 % of control | dose: 50.0 mg/kg/injection, schedule: Q01DX001 (ip), vehicle: water 102 % of control | dose: 100.0 mg/kg/injection, schedule: Q01DX001 (ip), vehicle: water 109 % of control

Cc1ccc(Br)c(C(O)(C(F)(F)F)C(F)(F)F)c1C
inactive: [1] 107 % of control | [2] 106 % of control

CN(C)CC1(c2ccccc2)C(=O)N(C)C(=O)N(C2CCCCC2)C1=O (stereo not drawn)
inactive: dose: 50.0 mg/kg/injection, schedule: Q01DX009 (ip), vehicle: saline with Tween-80 100 % of control | dose: 100.0 mg/kg/injection, schedule: Q01DX009 (ip), vehicle: saline with Tween-80 105 % of control | dose: 200.0 mg/kg/injection, schedule: Q01DX009 (ip), vehicle: saline with Tween-80 115 % of control

Cc1ccnc(-n2c(N)cc(=O)[nH]c2=S)c1
inactive: [10] 86 % of control | [11] 118 % of control | [18] 100 % of control

O=CC(O)C(O)C(O)C(O)CO (stereo not drawn)
inactive: dose: 12.5 mg/kg/injection, schedule: Q04DX003 (ip), vehicle: saline 108 % of control | dose: 25.0 mg/kg/injection, schedule: Q04DX003 (ip), vehicle: saline 100 % of control | dose: 50.0 mg/kg/injection, schedule: Q04DX003 (ip), vehicle: saline 108 % of control | dose: 60.0 mg/kg/injection, schedule: Q01DX005 (ip), vehicle: saline 103 % of control | dose: 120.0 mg/kg/injection, schedule: Q01DX005 (ip), vehicle: saline 105 % of control | dose: 240.0 mg/kg/injection, schedule: Q01DX005 (ip), vehicle: saline 102 % of control | dose: 1.0 % in 0.5 ml injection vol, schedule: Q01DX009 (ip), vehicle: water 100 % of control | dose: 2.0 % in 0.5 ml injection vol, schedule: Q01DX009 (ip), vehicle: water 103 % of control | dose: 4.0 % in 0.5 ml injection vol, schedule: Q01DX009 (ip), vehicle: water 101 % of control | dose: 8.0 % in 0.5 ml injection vol, schedule: Q01DX009 (ip), vehicle: water 100 % of control and 105 % of control | dose: 16.0 % in 0.5 ml injection vol, schedule: Q01DX009 (ip), vehicle: water 103 % of control and 112 % of control | dose: 32.0 % in 0.5 ml injection vol, schedule: Q01DX009 (ip), vehicle: water 98 % of control and 99 % of control

CC1=C(C)C(N(C)C)CS(=O)(=O)O1 (stereo not drawn)
inactive: dose: 50.0 mg/kg/injection, schedule: Q01DX005 (ip), vehicle: Klucel (hydroxypropylcellulose) (HPC) 99 % of control | dose: 100.0 mg/kg/injection, schedule: Q01DX005 (ip), vehicle: Klucel (hydroxypropylcellulose) (HPC) 104 % of control

S=C(NCc1cccnc1)Nc1ccc(Cl)c(Cl)c1
inactive: [1] 104 % of control | [2] 108 % of control | [3] 104 % of control

CC(C)CC(NC(=O)CN(Cc1ccccc1)S(C)(=O)=O)C(=O)O (stereo not drawn) (Ms-[Nphe]-[ξL]-OH)
inactive: [14] 100 % of control | [15] 104 % of control | [16] 114 % of control | [17] 104 % of control | [19] 100 % of control

NC(CSC1c2ccccc2-c2ccccc21)C(=O)O (stereo not drawn)
inactive: [5] 90 % of control | [8] 98 % of control | [9] 92 % of control

Cc1c2c(cc3c1[nH]c1ccccc13)C(c1ccc(Cl)cc1)=NCC2
inactive: dose: 12.5 mg/kg/injection, schedule: Q01DX009 (ip), vehicle: Klucel (hydroxypropylcellulose) (HPC) 99 % of control | dose: 25.0 mg/kg/injection, schedule: Q01DX009 (ip), vehicle: Klucel (hydroxypropylcellulose) (HPC) 101 % of control | [1] 96 % of control | [2] 96 % of control

CCOP(=O)(O)OCC.CCOP(=O)(O)OCC.[O]=[V]
inactive: [20] 100 % of control | [21] 100 % of control

S=c1n(-c2ccc(Cl)cc2)c2nc3ccccc3nc(/c2=N\Nc2cc(Cl)ccc2Cl)n1-c1ccc(Br)cc1
inactive: [22] 100 % of control | [23] 105 % of control | [24] 97 % of control

CC(CO)(CO)N1C(=O)c2cccc3cc([N+](=O)[O-])cc(c23)C1=O
inactive: [22] 114 % of control | [23] 105 % of control | [24] 107 % of control

CCOC(=O)c1csc(CCNC(=O)c2ccccc2)n1
inactive: [14] 103 % of control | [15] 102 % of control | [16] 94 % of control | [17] 94 % of control | [19] 89 % of control

Cc1cc(=O)oc2nn(CCO)c(C)c12
inactive: [5] 105 % of control | [8] 100 % of control | [9] 91 % of control

Nc1ccc(OCCNC(=O)c2ccc(S(=O)(=O)F)cc2)c(Cl)c1
inactive: [11] 90 % of control | [18] 100 % of control | dose: 400.0 mg/kg/injection, schedule: Q01DX001 (ip), vehicle: saline with Tween-80 104 % of control

CCOC(=O)C1C(C(=O)c2ccc(Br)cc2)C12C(=O)N(C)c1ccccc12 (stereo not drawn)
inactive: [12] 99 % of control | [13] 92 % of control | dose: 50.0 mg/kg/injection, schedule: Q04DX002 (ip), vehicle: saline with Tween-80 93 % of control

C[n+]1ccc2ccccc2c1SC1CCC2CC3CC2C1C3 (stereo not drawn)
inactive: dose: 7.5 mg/kg/injection, schedule: Q01DX005 (ip), vehicle: saline with Tween-80 106 % of control | [4] 110 % of control

C1CSCCSCCCSCCSCCCSCCSC1
inactive: [20] 97 % of control | [21] 105 % of control | dose: 400.0 mg/kg/injection, schedule: Q01DX001 (ip), vehicle: Klucel (hydroxypropylcellulose) (HPC) 97 % of control
